Results as given in ChEMBL document CHEMBL5579841, “Structure-based development of novel substrate-type G9a inhibitors as epigenetic modulators for sickle cell disease treatment” (Bioorg Med Chem Lett, 2024).
In brackets after ≈: the same amount, converted by molar mass. Activity calls are given as the source filed them. No cut-off for these calls is given here.

Experiments:
[1] = molecular target: T1, Histone-lysine N-methyltransferase EHMT2 (Homo sapiens, UniProt Q96KQ7); test: Binding affinity to G9a (unknown origin) assessed as dissociation constant by SPR analysis
T1 sequence (Q96KQ7 whole entry): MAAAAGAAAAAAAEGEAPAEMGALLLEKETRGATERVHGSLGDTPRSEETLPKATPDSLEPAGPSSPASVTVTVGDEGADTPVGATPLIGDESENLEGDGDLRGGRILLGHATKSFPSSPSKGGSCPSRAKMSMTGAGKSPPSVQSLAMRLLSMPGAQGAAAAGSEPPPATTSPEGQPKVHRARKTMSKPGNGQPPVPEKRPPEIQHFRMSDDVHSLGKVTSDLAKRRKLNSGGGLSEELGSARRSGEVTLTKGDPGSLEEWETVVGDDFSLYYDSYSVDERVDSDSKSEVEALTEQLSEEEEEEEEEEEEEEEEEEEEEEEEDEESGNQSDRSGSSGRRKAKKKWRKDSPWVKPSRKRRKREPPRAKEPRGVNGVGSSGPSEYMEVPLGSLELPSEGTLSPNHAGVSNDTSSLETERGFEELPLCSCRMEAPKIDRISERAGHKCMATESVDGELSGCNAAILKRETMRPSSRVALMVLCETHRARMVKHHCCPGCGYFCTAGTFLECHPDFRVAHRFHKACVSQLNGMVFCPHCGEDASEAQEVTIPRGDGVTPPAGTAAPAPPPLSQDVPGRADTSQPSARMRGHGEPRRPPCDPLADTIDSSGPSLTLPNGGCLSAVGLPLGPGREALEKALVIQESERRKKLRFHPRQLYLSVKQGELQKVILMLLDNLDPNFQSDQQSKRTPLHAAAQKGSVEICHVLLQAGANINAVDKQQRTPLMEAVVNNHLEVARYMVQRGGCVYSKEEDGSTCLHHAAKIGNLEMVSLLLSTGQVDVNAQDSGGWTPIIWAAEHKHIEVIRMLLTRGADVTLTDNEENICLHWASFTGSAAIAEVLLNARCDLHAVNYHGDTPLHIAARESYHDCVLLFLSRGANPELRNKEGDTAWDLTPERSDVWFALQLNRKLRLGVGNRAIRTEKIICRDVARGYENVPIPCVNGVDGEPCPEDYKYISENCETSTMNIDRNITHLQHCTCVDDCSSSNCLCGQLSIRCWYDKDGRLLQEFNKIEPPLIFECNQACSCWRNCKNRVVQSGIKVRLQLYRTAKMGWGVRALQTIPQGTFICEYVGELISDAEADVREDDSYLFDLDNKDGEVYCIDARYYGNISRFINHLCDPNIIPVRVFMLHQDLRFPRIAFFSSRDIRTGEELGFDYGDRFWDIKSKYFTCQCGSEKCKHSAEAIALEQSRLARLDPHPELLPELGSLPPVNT

[2] = molecular target: T2, Histone-lysine N-methyltransferase EHMT2 (Homo sapiens) (UniProt Q96KQ7); test: Binding affinity to G9a (unknown origin) assessed as binding constant K(on) by SPR analysis
T2 sequence (whole entry): T1 sequence (Q96KQ7 whole entry)

[3] = molecular target: T2, Histone-lysine N-methyltransferase EHMT2 (Homo sapiens); test: Binding affinity to G9a (unknown origin) assessed as binding constant K(off) by SPR analysis
[4] = Aqueous solubility of compound at pH 7.4; type: physicochemical
[5] = Permeability of compound by PAMPA; type: ADME; conditions: read-out: permeability
[6] = Metabolic stability in mouse liver microsomes assessed as compound remaining measured after 30 mins; type: ADME, Microsome; conditions: read-out: Stability
[7] = Metabolic stability in mouse liver microsomes assessed as compound remaining measured after 60 mins; type: ADME, Microsome; conditions: read-out: Stability
[8] = Metabolic stability in human liver microsomes assessed as compound remaining measured after 30 mins; type: ADME, Microsome; conditions: read-out: Stability
[9] = Metabolic stability in human liver microsomes assessed as compound remaining measured after 60 mins; type: ADME, Microsome; conditions: read-out: Stability
[10] = molecular target: T1, Histone-lysine N-methyltransferase EHMT2; test: Inhibition of G9a (unknown origin)
HUDEP-2 = test: Induction of gamma-globin mRNA expression in human HUDEP-2 cells assessed as expression shift from adult-type beta-globin to fetal-type gamma-globin upto 1 uM by […] analysis; type: functional, cell-based

SMILES	solubility [4] [µM]	Papp [5] [×10⁻⁶ cm/s]	IC50 [10] [nM]	also measured
Cc1c(C(=O)N[C@@H](CCC2CC2)C(=O)Nc2ccc(C#N)cc2)[nH]c2c1C(=O)CC(C)(C)C2				Kd [1]: 750 nM; K [2]: 16000 M⁻¹ s⁻¹; K [3]: 0.012 s⁻¹
CCCC[C@H](NC(=O)c1[nH]c2c(c1C)C(=O)CC(C)(C)C2)C(=O)Nc1ccccc1	7 (≈ 2.87 µg/mL)	35.9		remaining at 0.5 h [6]: 11%; remaining at 1 h [7]: 1.1%; remaining at 0.5 h [8]: 22%; remaining at 1 h [9]: 10%
CCCC[C@H](NC(=O)c1[nH]c2c(c1C)C(=O)CC(C)(C)C2)C(=O)NCc1ccc(CN(C)C)cc1	201 (≈ 96.6 µg/mL)	7.2	9	remaining at 0.5 h [6]: 78%; remaining at 1 h [7]: 65%; remaining at 0.5 h [8]: 52%; remaining at 1 h [9]: 30%
CCCCC(NC(=O)c1[nH]c2c(c1C)C(=O)CC(C)(C)C2)C(=O)Nc1ccccc1 (racemic)	20 (≈ 8.19 µg/mL)		1300	
CCCCC(NC(=O)c1[nH]c2c(c1C)C(=O)CC(C)(C)C2)C(=O)Nc1ccc(CCN2CCOCC2)cc1 (racemic)	14 (≈ 7.32 µg/mL)		1000	
CCCCC(NC(=O)c1[nH]c2c(c1C)C(=O)CC(C)(C)C2)C(=O)Nc1ccc(CCN2CCCCC2)cc1 (racemic)	197 (≈ 103 µg/mL)	6.3	42	
CCCCC(NC(=O)c1[nH]c2c(c1C)C(=O)CC(C)(C)C2)C(=O)NCc1ccc(CN(C)C)cc1 (racemic)	> 200	9.5	12	
CCCCC(NC(=O)c1[nH]c2c(c1C)C(=O)CC(C)(C)C2)C(=O)NCc1ccccc1 (racemic)	2.5 (≈ 1.06 µg/mL)		330	
CCCCC(NC(=O)c1[nH]c2c(c1C)C(=O)CC(C)(C)C2)C(=O)Nc1ccc(CCN2CCS(=O)(=O)CC2)cc1 (racemic)	37 (≈ 21.1 µg/mL)	2.12	2800	
CCCCC(NC(=O)c1[nH]c2c(c1C)C(=O)CC(C)(C)C2)C(=O)Nc1ccc(CN2CCCC2)cc1 (racemic)	189 (≈ 93.1 µg/mL)	12.7	44	
CCCCC(NC(=O)c1[nH]c2c(c1C)C(=O)CC(C)(C)C2)C(=O)Nc1ccc(CN2CCC(F)(F)CC2)cc1 (racemic)	5.7 (≈ 3.09 µg/mL)		930	
CCCCC(NC(=O)c1[nH]c2c(c1C)C(=O)CC(C)(C)C2)C(=O)Nc1ccc(CCN2CCC(F)(F)CC2)cc1 (racemic)	2.3 (≈ 1.28 µg/mL)		1600	
CCCCC(NC(=O)c1[nH]c2c(c1C)C(=O)CC(C)(C)C2)C(=O)Nc1ccc(CN(C)C)cc1 (racemic)			42	

Further lines, with some results ahead:

solubility [4] [µM]	Papp [5] [×10⁻⁶ cm/s]	IC50 [10] [nM]	SMILES	also measured
200 (≈ 105 µg/mL)	8.1	44	CCCC[C@H](NC(=O)c1[nH]c2c(c1C)C(=O)CC(C)(C)C2)C(=O)Nc1ccc(OC2CCN(C)CC2)nc1	remaining at 0.5 h [6]: 72%; remaining at 1 h [7]: 53%; remaining at 0.5 h [8]: 80%; remaining at 1 h [9]: 62%; Kd [1]: 170 nM; K [2]: 79000 M⁻¹ s⁻¹; K [3]: 0.013 s⁻¹
200 (≈ 105 µg/mL)	9.3	24	CCCC[C@H](NC(=O)c1[nH]c2c(c1C)C(=O)CC(C)(C)C2)C(=O)Nc1ccc(OC2CCN(C)CC2)cc1	remaining at 0.5 h [6]: 72%; remaining at 1 h [7]: 58%; remaining at 0.5 h [8]: 57%; remaining at 1 h [9]: 37%; Kd [1]: 120 nM; K [2]: 110000 M⁻¹ s⁻¹; K [3]: 0.013 s⁻¹; Activity (HUDEP-2): Active
> 200	29		CCCCC(NC(=O)c1[nH]c2c(c1C)C(=O)CC(C)(C)C2)C(=O)Nc1cccnc1 (racemic)	
> 200	3.6	110	CCCCC(NC(=O)c1[nH]c2c(c1C)C(=O)CC(C)(C)C2)C(=O)Nc1ccc(OCCN(C)C)nc1 (racemic)	
192 (≈ 100 µg/mL)	5.9	22	CCCCC(NC(=O)c1[nH]c2c(c1C)C(=O)CC(C)(C)C2)C(=O)Nc1ccc(OC2CCN(C)CC2)cc1 (racemic)	
> 200	0.4	74	CCCCC(NC(=O)c1[nH]c2c(c1C)C(=O)CC(C)(C)C2)C(=O)Nc1ccc(OCCN)nc1 (racemic)	
> 200	4.9	65	CCCCC(NC(=O)c1[nH]c2c(c1C)C(=O)CC(C)(C)C2)C(=O)Nc1ccc(OC2CCN(C)CC2)nc1 (racemic)	
> 200	0.07	59	CCCCC(NC(=O)c1[nH]c2c(c1C)C(=O)CC(C)(C)C2)C(=O)Nc1ccc(OCCNC)nc1 (racemic)	
